Assay results as given in a melting point compilation (Tetko et al.; mined from patent text by program, amines drawn as free bases though some values may be those of a salt).

Structure (SMILES) | melting point
NC(=O)COc1cccc(N)c1 | 107 to 111 °C
Nc1ncccc1C(=O)NCC1CCN(C[C@H]2COc3ccc(Br)cc3O2)CC1 | 158 to 160 °C
COCCn1nnnc1C1(c2cccc(C(F)(F)F)c2)C=CC(O)=CC1O (centres undefined) | 115 to 156 °C
CC(C)c1nc(CN)n(C)c1Sc1cc(Cl)cc(Cl)c1 | 86 to 87 °C
CC1=C(C)C(=O)C(C(CCCCCC(=O)O)c2cccnc2)=C(C)C1=O (centres undefined) | 126 to 127 °C
Cn1cc(C2=C(c3c(S(C)=O)n(C)c4ccccc34)C(=O)NC2=O)c2ccccc21 (centres undefined) | 300 °C
O=C(O)[C@H](Cc1ccc(O)cc1)NS(=O)(=O)c1ccc(N2CCC(c3ccccc3)CC2)cc1 | 108 to 110 °C
OC1CSC(Oc2cccc(-c3cccc(Cl)n3)c2)C(O)C1O (centres undefined) | 180 to 222 °C
N#Cc1cnc2sc(-c3cccc(C=O)c3)cc2c1Nc1cccc2[nH]ccc12 | > 245 °C
CC1COC(c2nsc3ccc(-n4c(=O)cc(C(F)(F)F)n(C)c4=O)cc23)O1 (centres undefined) | 81 to 83 °C
O=C(NC=CCc1cn(C2CC(O)C(CO)O2)c(=O)[nH]c1=O)C(F)(F)F (centres undefined) | 183 to 184 °C
COc1cc(OCc2ccccn2)ccc1C=CC(=O)CC(C)=O | 81 to 82 °C
CCOP(=O)(OCC)c1ccc(Oc2ccccc2[N+](=O)[O-])cc1 | 150 °C
COc1cccc(C2=C(CC(C)=O)C(=O)NCCC2)c1 | 140 to 142 °C
CCc1ccc2c(c1)C=Cc1cc(C)ccc1C2c1cn(-c2ccnc(NCC(=O)Nc3nc(CC(=O)O)cs3)n2)c(=O)[nH]c1=O (centres undefined) | 217 °C
Cc1ccc(NC(=O)c2cccc(N3CCOCC3)c2)cc1N | 192 to 193 °C
CC/C(=C\C#N)c1ccc2c(c1)C(CC)(CC)OC(=O)N2 | 135 to 136 °C
Cc1ccc(N2CC(=O)N(c3ccc(S(N)(=O)=O)cc3Cl)C2)cc1 | 223 to 226 °C
N#C[C@@H]1CCCN1C(=O)CCl | 53 to 57 °C
CCNC(=O)[C@H]1N(C(=O)[C@@H](OC(C)=O)[C@H](Cc2ccccc2)NC(=O)c2cc(C)cc(OC(C)=O)c2C)CC(F)(F)C1(C)C | 88 to 93 °C
O=C(Cc1ccccc1)NC1C(=O)N2C1SC1(CCN(c3ccccc3)CC1)C2C(=O)OCc1ccccc1 (centres undefined) | 120 to 121 °C
N#Cc1c[nH]c2c(C(=O)O)cccc12 | 318 °C
O=C(Nc1cccc(F)c1)NC1CCN(S(=O)(=O)c2ccccc2)CC1 | 186 to 188 °C
NS(=O)(=O)c1cc(OC(F)F)ccc1OC(F)F | 73 to 74 °C
CCC(=O)NCC=C1CCc2ccc3nn(C)cc3c21 | 185 to 187 °C

Structure (SMILES) | melting point
NC(=NO)c1ncn2c1COC(=O)c1c(Cl)cccc1-2 | 252 to 254 °C
CNc1nc(NN)ncc1C#N | 247 to 249 °C
CCCCNC(=O)S(=O)(=O)Nc1sc(CC(C)C)cc1-c1ccc(Cn2c(-c3ccccc3)nc(OC)c2C=O)cc1 | 131 to 133 °C
OC1(c2ccc(C3OCCO3)cc2)CCCCC1 | 95 to 97 °C
C#CCSc1nc(-c2ccccc2)no1 | 39.4 °C
Oc1ccccc1OCC(F)(F)F | 49 to 50 °C
Cc1cc(Nc2cc(-c3cccc(N4Cc5cc(C(C)(C)C)ccc5C4=O)c3CO)cn(C)c2=O)nn1C | 225 to 227 °C
COc1ccc(S(=O)(=O)C2(CCC/C=C/c3ccc(Cl)cc3)SC(=O)NC2=O)cc1 (centres undefined) | 182 to 184 °C
O=C(NCc1ccc([N+](=O)[O-])cc1)C(F)(F)F | 97 to 98 °C
CCOC(=O)c1cc2c(=O)n(CC)c3ccc(Cl)cc3n2c1 | 230 to 232 °C
COc1ccc(Cn2cc[nH]c2=O)cc1 | 132 °C
CC(C)(C=O)Oc1ccc(Cl)cc1C#N | 85 to 88 °C
CCOCCN(c1cccc2cc(C(N)=O)[nH]c12)S(=O)(=O)c1cccs1 | 135 °C
Clc1ccc(CC2(c3ccccc3)OCC(CN3CCCCC3)O2)cc1 (centres undefined) | 58 °C
COc1cccc(S(=O)(=O)N2c3cc(F)ccc3-c3ccc(F)cc3C2C)c1 (centres undefined) | 147 to 149 °C
CC1CCC(=O)N1c1cc(-c2ccnc(Nc3cccc(Cl)c3)n2)ccn1 (centres undefined) | 162 to 164 °C
C=CCOc1cc(-n2c(OCC)nc(C(F)(F)F)cc2=O)c(F)cc1Br | 68 to 70 °C
CCOC(=O)N1Cc2ccccc2C(Oc2ccc(C(F)(F)F)cc2)C1 (centres undefined) | 84 °C
CCOC(=O)c1ccc(N(CCO)C(=O)Nc2ccc(C3CCN(C(=O)C(F)(F)F)CC3)cc2)cc1 | 105 to 108 °C
COc1ccc(-n2c(=O)[nH]c3cc(Cl)cc(Cl)c3c2=O)cc1 | 294 to 296 °C
O=C(CNC(=O)c1cc([N+](=O)[O-])ccc1Cl)OCc1ccccc1 | 116 to 118 °C
NCCCCn1cnc2ccccc21 | 119 to 123 °C
CCOC(=O)C1Cc2c(c(Cl)cc3c(-c4ccccc4)noc23)O1 (centres undefined) | 123 to 125 °C
CC(=O)c1ccc2ccccc2c1OCCCC(=O)O | 104 °C
CCCCOc1ccc(S(=O)(=O)C2(C(=O)NO)CCN(CCOc3ccccc3)CC2)cc1 | 112 °C

Structure (SMILES) | melting point
Cc1ccc(Cl)c2c(C)c(C(=O)O)[nH]c12 | 211 to 213 °C
NS(=O)(=O)c1ccc(-c2noc(-c3cnc4ccc(-c5ccc(Cl)cc5)cn34)n2)s1 | 263 °C
COc1ccc(N(C)C(=O)CN(C(=O)CN2C(=O)c3ccccc3C2=O)c2ccccc2)cc1 | 162 °C
COc1ccc(C(=O)Nc2ccc(C(C)(C)CNC(=O)c3cnc4[nH]ccc4c3)cc2)cc1OC | 256 to 258 °C
CCN(CC)c1c([N+](=O)[O-])cc(C(F)(F)F)c(Cl)c1[N+](=O)[O-] | 35 to 36 °C
O=C(O)c1cc(F)cc(-c2cccc3cc(Cc4cccc(C(F)(F)F)c4)sc23)c1 | 140 to 142 °C
IC=CC(CC1CCCC1)OC(c1ccccc1)(c1ccccc1)c1ccccc1 (centres undefined) | 87 to 88 °C
Cc1oc(-c2ccccc2)nc1COc1cccc(CN(O)C(=O)N(C)O)c1 | 62 to 64 °C
CNCC(=O)Nc1ccc(S(=O)(=O)c2cccc(Cl)c2)cc1 | 110 to 112 °C
COc1ccc(CN(C)CCCc2ccc(NC(=O)c3cccc4c(=O)c5ccccc5[nH]c34)cc2)cc1OC | 112 °C
CCOC(=O)COc1c(C)c(C(F)(F)F)nc(C(F)(F)F)c1C(=O)OCC | 42 to 44 °C
CCn1nc2c(N)nc3ccccc3c2c1CC(C)(C)NS(C)(=O)=O | 229 to 230 °C
CC1(C)CCn2c(nc(-c3ccncn3)cc2=O)N1CC(=O)c1ccccc1 | 203 to 205 °C
CCn1ncc2c(NCCc3ccccc3)c3ccccc3nc21 | 157 to 158 °C
C#CCN1C(=O)CCC1C(N)=O (centres undefined) | 145 to 147 °C
O=C(c1cnc(Cl)nc1C(F)(F)F)N1Cc2cccn2Cc2ccccc21 | 221 to 223 °C
O=C1NC(=O)C2(N1)C(=O)N(Cc1ccc(Cl)c(Cl)c1)c1c(F)cccc12 (single isomer, unassigned; (+)) | 246 °C
CCCCCCCCCCCCCCCCCCOc1ccc(O)c(C(=O)OC)c1 | 53 to 54 °C
CC(=O)Nc1cccc2c1C(=O)C1(NC(C)=O)c3ccc(C(C)C)cc3OC21O (centres undefined) | 189 to 191 °C
CC(C)(O)c1ccc(-c2nn(Cc3ccccc3)c3ccccc23)o1 | 124 to 127 °C
c1cnn2cnnc2c1 | 140 to 141 °C
CCCCOc1nn(-c2ccc(C(F)(F)F)cn2)cc1CCCOc1ccc(CCC(=O)O)c(OCC)c1 | 102 to 103 °C
O=C(O)Cc1ccccc1OCc1cn(-c2ccc(C(F)(F)F)cn2)nc1C1CCCCC1 | 131 to 132 °C
COc1cc(C2CCN(CC(O)CF)CC2)ccc1Nc1ncc2ccc(-c3ccccc3N(C)S(C)(=O)=O)n2n1 (centres undefined) | 82 to 95 °C
Cc1ccc(S(=O)(=O)NC(=O)CC2(c3ccc(OCc4ccc5ccccc5n4)cc3)CCCC2)cc1 | 80 °C

Structure (SMILES) | melting point
Cc1ccccc1CC(C)(C)NC(C)(O)c1ccc(O)c(O)c1C (centres undefined) | 166 to 169 °C
O=c1c2c(O)cccc2[nH]c2c([N+](=O)[O-])ccc(Cl)c12 | 265 to 267 °C
CCOC(=O)CCc1ccc2c(c1)CC(CNC(=O)OC(C)(C)C)CC2 (centres undefined) | 69 to 71 °C
CCOc1ccc(N(C)CCCN)cc1 | 97 to 98 °C
CCn1cc(C(=O)OCC(=O)O)c(=O)c2cc3c(cc21)OCO3 | 240 to 243 °C
CC(C)(C)OC(=O)NCc1ccc(Nc2ncnc3[nH]cc(C(=O)c4ccccc4)c23)cc1 | 256 to 258 °C
CCS(=O)(=O)Nc1cc(-c2ncnc(C(F)F)c2Cl)c(F)cc1Cl | 138 to 139 °C
O=C(c1ccncc1)c1cc(Br)cc(Br)c1 | 89 to 92 °C
CC(C)C(NC(=O)C(F)(F)F)C(=O)O (centres undefined) | 88 to 89 °C
CC(C)(C)c1cccc(S(=O)(=O)n2c(CBr)cc3cc(C(F)(F)F)ccc32)c1 | 80 °C
COc1ccccc1Oc1ccc(Cl)cc1C(=O)O | 115 to 118 °C
CN(CCCCCC(=O)O)c1ccc(Br)cc1C=O | 95 to 96 °C
Nc1ccc(N2CCCC2)c(S(=O)(=O)O)c1 | 255 to 256 °C
COc1ccc(CCN(C)CCCCc2ccc(NC(=O)c3cccc4c(=O)c5ccccc5oc34)cc2)cc1OC | 102 °C
COc1cc2c3c(cccc3c1)C(=O)N(O)C2=O | 236 to 239 °C
CCCCCCCCCCCCCCCCCCCCCCNc1cc(N)c([N+](=O)[O-])cc1[N+](=O)[O-] | 108 to 110 °C
Nc1ccccc1C(=O)OC1CCN(Cc2ccccc2)CC1 | 87 to 88 °C
CC(C)(C(=O)O)c1nnc2ccc(NCCCN3CCC(OC(c4ccccc4)c4ccccc4)CC3)nn12 | 155 to 157 °C
OCC#CC1=Cc2ccccc2Sc2ccc(Cl)cc21 | 111 to 113 °C
CCC12CCC3C4=C(CCC3C1CCC2=O)CC(OC)=CC4 (centres undefined) | 126 to 143 °C
O=C(CNc1ccccc1)Nc1cc(Cl)ccc1C(=O)O | 229 to 230 °C
CCC12CCC3C4CCC(OC)=CC4=CCC3C1C=CC2=O (centres undefined) | 159 to 161 °C
CCCS(=O)c1csc(C(=O)OC)c1S(N)(=O)=O (centres undefined) | 131 to 144 °C
COc1cc(C(=O)c2sc(NC(=O)c3ccncc3)nc2-c2ccco2)ccn1 | 237 to 239 °C
